Assays:
lipoamide = compound: NC(=O)CCCCC1CCSS1 [lipoamide]; assay: thermal stability z-score vs DMSO; higher = more thermally stabilized by treatment; conditions: HeLa, lipoamide concentration 100 µM
Method: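 Cellular thermal proteome profiling in HeLa cells. Cells were treated with 100 µM lipoamide for 1 h, with or without 1 mM arsenate for a further 1 h, then heated to ten temperatures (37-66.3 °C), and soluble protein was quantified by TMT mass spectrometry relative to 0.1% DMSO controls. The thermal stability score (sum of log2 fold changes minus the abundance score) was transformed to a z-score; mean of n = 3 experiments.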

potassium arsenate = compound: O=[As]([O-])(O)O.[K+] [potassium arsenate]; assay: as above; conditions: HeLa; arsenate concentration 1 mM
Method: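 Cellular thermal proteome profiling in HeLa cells treated with 1 mM arsenate for 1 h (DMSO pretreatment), heated to ten temperatures (37-66.3 °C). Soluble protein was quantified by TMT mass spectrometry relative to DMSO controls; the thermal stability score was transformed to a z-score; mean of n = 3 experiments.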

[1] = arsenate co-treatment: 1 mM arsenate 1 h
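Further: each temperature applied for 3 min, abundance score taken as mean log2 fold change at the two lowest temperatures, z-score obtained by mean subtraction and division by SD.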

Sequence of UniProt Q8WTV0 (Q8WTV0 whole entry): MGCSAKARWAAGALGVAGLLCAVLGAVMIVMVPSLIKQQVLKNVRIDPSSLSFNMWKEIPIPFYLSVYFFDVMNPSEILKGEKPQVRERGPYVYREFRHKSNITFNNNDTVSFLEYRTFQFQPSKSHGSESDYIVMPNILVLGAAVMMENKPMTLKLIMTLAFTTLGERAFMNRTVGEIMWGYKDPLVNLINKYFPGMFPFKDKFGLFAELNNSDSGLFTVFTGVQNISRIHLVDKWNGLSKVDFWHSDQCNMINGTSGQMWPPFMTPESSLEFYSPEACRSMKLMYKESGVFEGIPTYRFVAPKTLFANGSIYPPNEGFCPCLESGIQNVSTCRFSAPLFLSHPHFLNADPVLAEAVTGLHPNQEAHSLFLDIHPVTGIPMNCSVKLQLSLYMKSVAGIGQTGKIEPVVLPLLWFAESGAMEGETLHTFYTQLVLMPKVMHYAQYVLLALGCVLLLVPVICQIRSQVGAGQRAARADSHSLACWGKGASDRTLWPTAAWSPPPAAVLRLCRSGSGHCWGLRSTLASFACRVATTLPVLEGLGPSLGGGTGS
Sequence of UniProt Q6IQ49 (Q6IQ49 whole entry, looked up): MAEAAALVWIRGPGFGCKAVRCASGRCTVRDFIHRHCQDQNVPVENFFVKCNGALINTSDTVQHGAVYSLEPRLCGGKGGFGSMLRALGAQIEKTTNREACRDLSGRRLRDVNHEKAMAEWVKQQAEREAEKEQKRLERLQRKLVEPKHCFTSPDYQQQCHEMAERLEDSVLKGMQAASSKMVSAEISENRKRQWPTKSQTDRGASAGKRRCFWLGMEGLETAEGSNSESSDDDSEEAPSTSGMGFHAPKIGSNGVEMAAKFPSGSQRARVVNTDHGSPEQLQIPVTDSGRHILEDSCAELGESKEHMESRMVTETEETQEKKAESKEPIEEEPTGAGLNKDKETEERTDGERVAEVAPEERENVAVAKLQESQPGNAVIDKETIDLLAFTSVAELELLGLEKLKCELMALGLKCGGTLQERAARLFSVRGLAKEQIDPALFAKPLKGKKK
Sequence of UniProt O75880 (O75880 whole entry): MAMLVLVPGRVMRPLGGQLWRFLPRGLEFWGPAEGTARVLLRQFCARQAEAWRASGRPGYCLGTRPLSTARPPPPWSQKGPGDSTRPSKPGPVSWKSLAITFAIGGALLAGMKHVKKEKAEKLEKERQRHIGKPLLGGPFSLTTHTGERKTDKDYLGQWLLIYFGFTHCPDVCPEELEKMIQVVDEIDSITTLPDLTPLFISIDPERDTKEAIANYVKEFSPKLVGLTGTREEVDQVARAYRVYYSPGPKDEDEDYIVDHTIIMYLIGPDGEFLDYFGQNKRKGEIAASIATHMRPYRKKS
Sequence of UniProt Q969E2 (Q969E2 whole entry): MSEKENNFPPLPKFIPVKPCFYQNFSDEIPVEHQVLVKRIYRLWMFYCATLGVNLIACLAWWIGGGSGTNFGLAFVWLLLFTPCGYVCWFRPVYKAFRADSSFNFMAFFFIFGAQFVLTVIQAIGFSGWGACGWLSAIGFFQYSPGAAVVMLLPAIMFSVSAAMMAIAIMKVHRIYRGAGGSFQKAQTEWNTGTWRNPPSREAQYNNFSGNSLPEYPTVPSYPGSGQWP
Sequence of UniProt O43819 (O43819 whole entry): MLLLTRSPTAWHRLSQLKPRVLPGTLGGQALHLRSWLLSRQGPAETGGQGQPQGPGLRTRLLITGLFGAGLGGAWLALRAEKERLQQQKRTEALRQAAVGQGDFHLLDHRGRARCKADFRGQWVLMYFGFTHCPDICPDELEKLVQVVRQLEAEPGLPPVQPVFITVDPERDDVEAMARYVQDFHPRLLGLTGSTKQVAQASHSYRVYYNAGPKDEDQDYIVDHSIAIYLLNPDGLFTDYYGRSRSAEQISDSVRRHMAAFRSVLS
Sequence of UniProt Q9UPN6 (Q9UPN6 whole entry): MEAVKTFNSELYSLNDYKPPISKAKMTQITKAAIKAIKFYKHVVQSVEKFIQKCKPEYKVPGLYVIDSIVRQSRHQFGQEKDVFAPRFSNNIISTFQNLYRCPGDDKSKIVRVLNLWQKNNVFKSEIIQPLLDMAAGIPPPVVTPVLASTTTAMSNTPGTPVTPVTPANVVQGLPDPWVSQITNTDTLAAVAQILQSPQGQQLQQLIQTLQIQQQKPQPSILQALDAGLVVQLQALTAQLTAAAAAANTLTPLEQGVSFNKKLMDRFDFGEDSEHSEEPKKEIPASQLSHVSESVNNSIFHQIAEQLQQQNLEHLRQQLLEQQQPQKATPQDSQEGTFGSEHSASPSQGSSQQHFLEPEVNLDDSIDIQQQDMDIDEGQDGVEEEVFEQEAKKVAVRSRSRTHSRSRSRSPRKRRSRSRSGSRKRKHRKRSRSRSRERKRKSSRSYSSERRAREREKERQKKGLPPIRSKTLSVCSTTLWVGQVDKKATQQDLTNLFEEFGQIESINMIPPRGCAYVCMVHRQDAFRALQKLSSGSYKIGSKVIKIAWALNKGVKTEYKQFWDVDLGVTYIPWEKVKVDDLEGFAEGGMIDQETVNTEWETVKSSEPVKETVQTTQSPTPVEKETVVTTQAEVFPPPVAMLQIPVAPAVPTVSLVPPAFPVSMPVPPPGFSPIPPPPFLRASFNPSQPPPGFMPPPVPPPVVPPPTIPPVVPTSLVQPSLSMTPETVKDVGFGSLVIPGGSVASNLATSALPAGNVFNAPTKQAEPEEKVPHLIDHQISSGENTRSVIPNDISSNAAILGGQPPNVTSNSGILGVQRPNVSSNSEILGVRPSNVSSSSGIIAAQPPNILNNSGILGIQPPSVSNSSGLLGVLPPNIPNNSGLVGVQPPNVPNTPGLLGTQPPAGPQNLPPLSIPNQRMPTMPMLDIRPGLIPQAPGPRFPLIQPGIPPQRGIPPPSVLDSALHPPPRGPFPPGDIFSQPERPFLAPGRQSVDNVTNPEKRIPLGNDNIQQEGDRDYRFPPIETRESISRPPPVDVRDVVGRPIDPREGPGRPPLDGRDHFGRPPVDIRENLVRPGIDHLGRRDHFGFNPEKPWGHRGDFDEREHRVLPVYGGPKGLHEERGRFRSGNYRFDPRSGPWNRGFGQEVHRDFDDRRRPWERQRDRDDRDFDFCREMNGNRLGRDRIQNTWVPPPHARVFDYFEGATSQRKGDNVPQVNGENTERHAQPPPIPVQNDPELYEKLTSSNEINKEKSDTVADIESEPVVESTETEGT
Sequence of UniProt Q9HCN8 (Q9HCN8 whole entry): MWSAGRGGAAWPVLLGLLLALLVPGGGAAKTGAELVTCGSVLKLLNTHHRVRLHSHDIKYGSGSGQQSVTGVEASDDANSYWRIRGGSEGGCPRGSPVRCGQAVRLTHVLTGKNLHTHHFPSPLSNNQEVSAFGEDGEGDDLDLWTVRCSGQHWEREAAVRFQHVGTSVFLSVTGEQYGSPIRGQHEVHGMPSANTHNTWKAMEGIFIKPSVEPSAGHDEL
Sequence of UniProt Q8WU76 (Q8WU76 whole entry): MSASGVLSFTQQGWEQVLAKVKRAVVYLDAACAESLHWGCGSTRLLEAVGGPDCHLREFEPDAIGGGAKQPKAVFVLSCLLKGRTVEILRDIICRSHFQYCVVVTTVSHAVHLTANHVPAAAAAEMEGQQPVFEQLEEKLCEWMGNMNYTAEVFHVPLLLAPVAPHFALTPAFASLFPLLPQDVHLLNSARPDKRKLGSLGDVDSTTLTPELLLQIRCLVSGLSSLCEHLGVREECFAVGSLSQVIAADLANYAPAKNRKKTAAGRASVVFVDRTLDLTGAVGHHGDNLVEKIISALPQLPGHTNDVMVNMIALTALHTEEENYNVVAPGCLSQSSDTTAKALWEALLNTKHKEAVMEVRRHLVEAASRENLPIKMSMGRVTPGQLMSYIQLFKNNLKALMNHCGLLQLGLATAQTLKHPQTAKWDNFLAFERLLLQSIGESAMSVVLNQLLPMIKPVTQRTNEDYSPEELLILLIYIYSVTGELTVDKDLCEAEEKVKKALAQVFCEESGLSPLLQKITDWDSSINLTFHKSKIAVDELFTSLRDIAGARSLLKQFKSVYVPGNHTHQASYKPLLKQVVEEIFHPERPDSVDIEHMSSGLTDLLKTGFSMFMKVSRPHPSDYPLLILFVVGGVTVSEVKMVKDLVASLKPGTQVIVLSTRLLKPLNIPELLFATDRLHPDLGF
Sequence of UniProt Q99470 (Q99470 whole entry): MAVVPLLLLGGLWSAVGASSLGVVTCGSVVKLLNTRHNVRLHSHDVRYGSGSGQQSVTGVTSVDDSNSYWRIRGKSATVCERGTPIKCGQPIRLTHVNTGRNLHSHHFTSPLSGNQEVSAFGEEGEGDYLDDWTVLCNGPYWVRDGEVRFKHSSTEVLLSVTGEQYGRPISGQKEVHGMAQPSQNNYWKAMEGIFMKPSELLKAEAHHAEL
Sequence of UniProt Q8NBX0 (Q8NBX0 whole entry): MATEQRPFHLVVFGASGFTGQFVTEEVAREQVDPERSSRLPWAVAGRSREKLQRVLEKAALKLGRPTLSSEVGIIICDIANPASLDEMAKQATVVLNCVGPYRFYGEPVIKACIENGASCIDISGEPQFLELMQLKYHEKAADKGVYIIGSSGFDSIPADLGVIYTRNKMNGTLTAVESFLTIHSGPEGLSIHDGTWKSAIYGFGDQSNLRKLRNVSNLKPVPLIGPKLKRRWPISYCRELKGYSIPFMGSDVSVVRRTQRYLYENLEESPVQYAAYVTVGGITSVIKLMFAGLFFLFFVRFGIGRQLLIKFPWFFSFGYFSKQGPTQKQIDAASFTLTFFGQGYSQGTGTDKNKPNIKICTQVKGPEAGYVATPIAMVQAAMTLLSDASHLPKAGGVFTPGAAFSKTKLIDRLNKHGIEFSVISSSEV
Sequence of UniProt O15127 (O15127 whole entry): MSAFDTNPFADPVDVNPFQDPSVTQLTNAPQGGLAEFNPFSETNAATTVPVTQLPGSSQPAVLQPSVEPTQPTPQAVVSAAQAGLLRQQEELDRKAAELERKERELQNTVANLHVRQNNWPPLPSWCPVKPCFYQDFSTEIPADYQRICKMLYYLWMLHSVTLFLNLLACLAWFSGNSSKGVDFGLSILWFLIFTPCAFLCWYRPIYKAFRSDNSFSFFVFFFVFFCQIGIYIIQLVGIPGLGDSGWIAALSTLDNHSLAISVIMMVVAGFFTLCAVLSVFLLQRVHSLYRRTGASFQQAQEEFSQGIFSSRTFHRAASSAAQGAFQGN

Target | thermal stability z-score (lipoamide; [1]) | thermal stability z-score (lipoamide; arsenate co-treatment: none) | thermal stability z-score (potassium arsenate)
SBNO1 (UniProt A3KN83) | 0.158 | 0.686 | 0.146
SCAF4 (UniProt O95104) | 0.0769 | 0.184 | 0.0697
SCAF8 (UniProt Q9UPN6) | -0.0718 | -0.03 | 0.155
SCAF11 (UniProt Q99590) | 1.24 | 0.982 | -1.02
SCAMP1 (UniProt O15126) | 0.621 | 0.765 | 0.0619
SCAMP2 (UniProt O15127) | 0.21 | -0.804 | -1.4
SCAMP3 (UniProt O14828) | 0.525 | 0.319 | -0.277
SCAMP4 (UniProt Q969E2) | 0.196 | 0.377 | 0.0173
SCAP (UniProt Q12770) | -1.13 | 0.0662 | -0.473
SCARB1 (UniProt Q8WTV0) | 0.0511 | 0.144 | 0.58
SCARB2 (UniProt Q14108) | 0.111 | 0.346 | 0.368
SCCPDH (UniProt Q8NBX0) | 0.163 | 0.0672 | 0.139
SCD (UniProt O00767) | -1.45 | -2.34 | 1.66
SCFD1 (UniProt Q8WVM8) | -0.771 | -0.32 | 0.224
SCFD2 (UniProt Q8WU76) | 0.0156 | -0.09 | 0.043
SCLY (UniProt Q96I15) | 0.111 | 0.27 | -0.415
SCML2 (UniProt Q9UQR0) | -0.0267 | -0.0968 | -0.22
SCNM1 (UniProt Q9BWG6) | -0.00102 | 0.278 | 0.418

Target | thermal stability z-score (lipoamide; [1]) | thermal stability z-score (lipoamide; arsenate co-treatment: none) | thermal stability z-score (potassium arsenate)
SCO1 (UniProt O75880) | -2.79 | -2.65 | 3.03
SCO2 (UniProt O43819) | -0.169 | 0.0623 | 0.538
SCP2 (UniProt P22307) | 0.374 | 0.0992 | -0.257
SCPEP1 (UniProt Q9HB40) | -0.372 | 0.187 | -0.196
SCRIB | -0.00971 | -0.22 | 0.128
SCRN2 (UniProt Q96FV2) | 0.553 | -0.0583 | -0.185
SCRN3 (UniProt Q0VDG4) | -0.445 | -0.169 | -0.0506
SCYL1 (UniProt Q96KG9) | -0.269 | -0.198 | -0.278
SCYL2 (UniProt Q6P3W7) | -0.369 | -0.657 | -0.414
SCYL3 (UniProt Q8IZE3) | -0.406 | -0.146 | -0.314
SDAD1 (UniProt Q9NVU7) | 0.0663 | -0.0856 | -0.469
SDCBP (UniProt O00560) | 0.541 | 0.425 | 0.364
SDE2 (UniProt Q6IQ49) | -0.399 | -0.282 | -1.16
SDF2 (UniProt Q99470) | -3.1 | -2.94 | 0.21
SDF2L1 (UniProt Q9HCN8) | -2.27 | -1.73 | 0.265
SDF4 (UniProt Q9BRK5) | -1.8 | -1.61 | 0.389
SDHA (UniProt P31040) | -0.493 | -0.532 | -1.17
SDHAF3 (UniProt Q9NRP4) | -0.644 | -0.535 | -0.145

Reference: the supplement of paper PMC12463676, “Small-molecule dissolution of stress granules by redox modulation benefits ALS models” (Nature Chemical Biology, 2025)
